What was measured:
[1] = biological target: T1, UII receptor (Homo sapiens, UniProt Q9UKP6); experiment: R-SAT functional mammalian cell-based agonist assay, UII receptor; conditions: for selectivity UII versus SST5 receptor (in words): UII and SST5 receptors; for UII Eff.: agonist efficacy; for UII Eff. / EC50 / UII pEC50: transfected NIH3T3 cells; for EC50 / UII pEC50: agonist; for EC50: read-out: UII pEC50 (converted); for agonist activity at the UII receptor (in words): potency similar to AC-7954
T1 construct: expressed in transfected cells; host or cells: NIH3T3 cells, receptor plasmid in PSI Mammalian Expression Vector (PROMEGA)
T1 sequence (Q9UKP6 1-389): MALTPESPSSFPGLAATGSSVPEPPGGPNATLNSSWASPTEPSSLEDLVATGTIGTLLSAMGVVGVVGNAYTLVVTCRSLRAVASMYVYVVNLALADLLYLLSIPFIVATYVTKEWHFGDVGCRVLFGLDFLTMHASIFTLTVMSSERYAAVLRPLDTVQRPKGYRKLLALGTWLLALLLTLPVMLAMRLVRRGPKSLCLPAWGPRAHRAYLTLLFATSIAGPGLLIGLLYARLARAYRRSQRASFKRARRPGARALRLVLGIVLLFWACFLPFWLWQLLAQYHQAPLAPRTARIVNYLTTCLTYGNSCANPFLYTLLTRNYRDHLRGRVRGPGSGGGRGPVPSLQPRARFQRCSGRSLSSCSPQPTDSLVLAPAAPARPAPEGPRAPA
Protocol: (§1) The compounds I to VI were tested as agonist at the UII and SST5 receptors in the functional mammalian cell-based assay R-SAT, described in U.S. Pat. Nos. 5,707,798, 5,912,132, and 5,955,281.
(§2) R-SAT assays were performed using NIH3T3 cells grown in tissue culture treated rollerbottles to 40-50% confluence. Cells were transfected for 12-16 hours with plasmid DNAs using SUPERFECT (QIAGEN) as per manufacture's protocols. R-SAT's were generally performed with 10 μg/rollerbottle of receptor and 50 μg/rollerbottle of beta-galactosidase plasmid DNA. All receptor and G-protein constructs used were in the PSI Mammalian Expression Vector (PROMEGA). The transfected cells were then trypsinized and frozen in DMEM containing 10% DMSO. Frozen cells were later thawed, plated at 10,000-40,000 cells per well of a 96½ area plate that contained drug. Cells were then grown in a humidified atmosphere with 5% ambient CO2 for five days. Media was then removed from the plates and marker gene activity was measured by the addition of the beta-galactosidase substrate ONPG (in PBS with 5% NP-40). The resulting colorimetric reaction was measured in a spectrophotometric plate reader (Titertek Inc.) at […].

[2] = biological target: T2, SST5 receptor (Homo sapiens, UniProt P35346); experiment: R-SAT functional mammalian cell-based agonist assay, SST5 receptor; conditions: transfected NIH3T3 cells; for SST5 Eff.: agonist efficacy; for EC50: agonist, read-out: SST5 pEC50 (converted)
T2 construct: expressed in transfected cells; host or cells: NIH3T3 cells, receptor plasmid in PSI Mammalian Expression Vector (PROMEGA)
Protocol: as §1, §2

[3] = Stability to oxidation by air during storage; format: physicochemical
Protocol: A pyrazoline scaffold was prepared by the condensation of compound of formula VI of Example 1 with methylhydrazine in the presence of L-InCl3. […] The stereochemistry of the major isomer was confirmed as having an anti-configuration by the strong interaction between […] in the diethylamino chain and by the absence of any NOESY correlation between H4 (3.56 ppm) and H5 (3.98 ppm). […]

T2 sequence (P35346 whole entry): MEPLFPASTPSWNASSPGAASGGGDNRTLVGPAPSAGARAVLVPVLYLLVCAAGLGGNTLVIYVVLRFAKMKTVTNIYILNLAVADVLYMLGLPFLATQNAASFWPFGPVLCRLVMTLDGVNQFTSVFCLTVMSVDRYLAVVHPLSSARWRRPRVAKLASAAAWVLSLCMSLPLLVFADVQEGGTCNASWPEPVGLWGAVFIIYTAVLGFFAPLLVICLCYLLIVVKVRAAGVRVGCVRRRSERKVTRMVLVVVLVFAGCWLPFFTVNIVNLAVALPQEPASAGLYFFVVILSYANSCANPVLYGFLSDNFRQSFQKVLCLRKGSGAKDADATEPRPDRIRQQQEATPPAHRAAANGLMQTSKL

Compound | selectivity UII versus SST5 receptor (in words) [1] | UII Eff. [1] | EC50 [1] | agonist activity at the UII receptor (in words) [1] | SST5 Eff. [2] | EC50 [2] | stability of the pyrazoline core to oxidation by air [3] | UII pEC50 [1] | melting point
CCN(CC)CCC1=C(c2ccccc2)NC(=O)N(C)C1c1ccc(Cl)cc1 (stereo not drawn) [I] | selective UII agonists | 68 | 6.31 µM | partial to full agonists |  |  |  |  | 
CCN(CC)CCC(=Cc1ccc(Cl)cc1)C(=O)c1ccccc1 (mixture of isomers) [Starting material] | activity at both the UII and SST5 receptors | 35 | 1.58 µM | partial to full agonists | 41 | 6.31 µM |  |  | 
CCN(CC)CCC1C(c2ccccc2)=NN(C)C1c1ccc(Cl)cc1 (mixture of isomers) [III, anti/syn-5-(4-Chloro-phenyl)-4-(2-diethylamino-ethyl)-1-methyl-3-phenyl-4,5-dihydro-1H-pyrazole] | selective UII agonists | 31 |  | partial to full agonists |  |  | stable to oxidation by air during storage | 5.4 | 
CCN(CC)CC[C@@H]1C(c2ccccc2)=Nc2ccccc2S[C@H]1c1ccc(Cl)cc1 (relative stereo) [V, anti-2-(4-Chloro-phenyl)-3-(2-diethylamino-ethyl)-4-phenyl-2,3-dihydro-benzo-[b]-[1,4]-thiazepine] | activity at both the UII and SST5 receptors | 92 | 5.01 µM | partial to full agonists | 60 | 10 µM |  |  | 
CN(C)CCC1(c2ccc(Cl)cc2)Cc2ccccc2C(=O)O1 (stereo not drawn) [AC-7954, reference compound] |  | 120 |  |  |  |  |  | 5.7 | 
CCN(CC)CCc1c(-c2ccccc2)nc(-c2ccccc2)nc1-c1ccc(Cl)cc1 [IV, 4-(4-Chloro-phenyl)-5-(2-diethylamino-ethyl)-2,6-diphenyl-pyrimidine] |  |  |  |  |  |  |  |  | 90.5 to 92.3 °C

Reference: patent publication US20100029612A1, “2-Aminoethyl Substituted Pyrimidin-2-Ones Cyclopropanes, Pyrazolines, Pyrimidines and Benzothiazepines and Their Uses as Urotensin II and Somatostatin 5 Receptor Ligands” (priority 2003, published 2010)
